Patent EP4678644A1, “SUBSTITUTED DIHYDROTHIENOPYRIMIDINE COMPOUND, PREPARATION METHOD THEREFOR, AND USE THEREOF” (Shanghai Yidi Biotechnology Co., Ltd., priority 2023, dated 2024)

Legend:
PDE4D2 = PDE4D2 (Homo sapiens, UniProt Q08499); assay: PDE4D2 enzyme experiment (AMP-glo, cAMP substrate); format: biochemical; conditions: read-out: PDE4D2 IC50 Binding
Text: Inhibition rate % ^= (1 - (RLUpositive control - RLUcompound)/(RLUpositive control - RLUnegative control)) * 100.

PDE4B2 [1] = molecular target: T1, PDE4B2 (Homo sapiens, UniProt Q07343); assay: PDE4B2 enzyme experiment (AMP-glo, cAMP substrate); format: biochemical; conditions: for inhibition at 0.01 µM: read-out: PDE4B2 Enzyme Inhibition% @10 nM; for inhibition at 0.1 µM: read-out: PDE4B2 Enzyme Inhibition% @100 nM
T1 construct: expressed in transfected cells; host or cells: Flp-In-293 (Flpin-293-PDE4B2 [sic])
T1 sequence (Q07343 1-564 isoform Q07343-2): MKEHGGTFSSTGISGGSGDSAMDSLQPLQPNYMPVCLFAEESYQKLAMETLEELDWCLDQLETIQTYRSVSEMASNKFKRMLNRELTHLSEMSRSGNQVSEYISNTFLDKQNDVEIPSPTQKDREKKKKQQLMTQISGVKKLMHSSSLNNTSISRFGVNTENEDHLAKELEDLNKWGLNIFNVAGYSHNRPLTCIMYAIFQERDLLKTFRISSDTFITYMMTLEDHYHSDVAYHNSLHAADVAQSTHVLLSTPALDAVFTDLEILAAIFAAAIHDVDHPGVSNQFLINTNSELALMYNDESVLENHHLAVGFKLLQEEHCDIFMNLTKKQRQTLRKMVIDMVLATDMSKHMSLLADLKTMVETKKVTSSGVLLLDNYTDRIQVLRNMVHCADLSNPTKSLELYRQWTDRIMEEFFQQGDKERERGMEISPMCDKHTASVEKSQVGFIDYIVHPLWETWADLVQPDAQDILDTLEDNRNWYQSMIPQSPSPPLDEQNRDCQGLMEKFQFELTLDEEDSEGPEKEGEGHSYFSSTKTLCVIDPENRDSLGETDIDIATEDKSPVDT
Procedure: All compounds were dissolved in DMSO into 10 mM or 20 mM stock solutions. The compound to be tested was diluted with DMSO in a 3-fold gradient. 20 nL/well of the compound or a DMSO control was transferred to a 384-well plate by using Echo 550 instrument. The plate was sealed with a membrane and centrifuged for 1 minute. A 2x enzyme solution was prepared with an assay buffer, and 2 uL/well of the 2x enzyme solution was added, followed by equilibration at room temperature for 10 minutes. A 2x Cyclic-3',5'-AMP substrate solution was prepared with an assay buffer, and 2 uL/well of the 2x substrate solution was added, followed by incubation at room temperature for 60 minutes. 4 uL of AMP-glo reagent was added, followed by incubation at room temperature for 60 minutes. 8 ul of an AMP detection solution was added, followed by incubation at room temperature for 60 minutes. An RLU value was read on Envision 2105 plate reader. The RLU value represents the concentration of the product AMP. Inhibition rate % ^= (1 - (RLUpositive control - RLUcompound)/(RLUpositive control - RLUnegative control)) * 100. The IC50 value was then caulculated by Graphpad 8.0 software using Y = Bottom + (Top - Bottom)/(1 + 10^((LogIC50 - X) * HillSlope)).

PDE4B2 [2] = molecular target: T1, PDE4B2; assay: PDE4B2 cell experiment (cAMP, Eu-cAMP tracer / Ulight-anti-cAMP); format: cell-based; conditions: Flpin-293-PDE4B2 cells; for inhibition at 0.01 µM / Cell Inhibition% @10 nM: 10 nM; for inhibition at 0.1 µM / Cell Inhibition% @100 nM: 100 nM; for IC50: Foskolin; for inhibition at 0.001 µM / Cell Inhibition% @1 nM: 1 nM

Chain of PDE4D2 (Q08499 303-809 limits assumed): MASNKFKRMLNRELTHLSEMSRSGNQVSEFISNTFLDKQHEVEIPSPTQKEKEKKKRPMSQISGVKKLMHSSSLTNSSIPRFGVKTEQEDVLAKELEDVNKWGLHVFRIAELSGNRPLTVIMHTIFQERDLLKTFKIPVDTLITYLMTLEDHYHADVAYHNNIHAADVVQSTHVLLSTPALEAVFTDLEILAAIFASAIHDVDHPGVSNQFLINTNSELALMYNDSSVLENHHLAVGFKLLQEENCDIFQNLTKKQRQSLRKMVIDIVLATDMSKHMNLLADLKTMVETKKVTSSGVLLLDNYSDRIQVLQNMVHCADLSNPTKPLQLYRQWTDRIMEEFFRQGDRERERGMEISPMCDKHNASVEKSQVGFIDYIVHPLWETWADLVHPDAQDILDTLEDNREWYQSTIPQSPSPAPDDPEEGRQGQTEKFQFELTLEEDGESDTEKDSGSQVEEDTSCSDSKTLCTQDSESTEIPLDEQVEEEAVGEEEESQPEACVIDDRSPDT

SMILES: [O-][S@+]1CCc2nc(N3CCc4c(nn5cc(Cl)cnc45)C3)nc(NC3(CO)CCC3)c21 [Compound 1, (R)-2-(3-chloro-9,10-dihydropyrido[3',4':3,4]pyrazolo[1,5-a]pyrimidin-8(7H)-yl)-4-((1-(hydroxymethyl)cyclobutyl)amino)-6,7-dihydrothieno[3,2-d]pyrimidine 5-oxide]
- IC50 (PDE4D2): 7.72 nM

SMILES: [O-][S@+]1CCc2nc(N3CCc4c(nn5cc(Cl)ccc45)C3)nc(NC3(CO)CCC3)c21 [Compound 9, (R)-2-(7-Chloro-3,4-dihydropyrazolo[1,5-a:3,4-c']dipyridin-2(1H)-yl)-4-((1-(hydroxymethyl)cyclobutyl)amino)-6,7-dihydrothieno[3,2-d]pyrimidine 5-oxide]
- IC50 (PDE4D2): 0.224 nM

SMILES: [O-][S@+]1CCc2nc(N3CCc4cc(Cl)ccc4C3)nc(NC3(CO)CCC3)c21 [Compound 18, (R)-2-(6-chloro-3,4-dihydroisoquinolin-2(1H)-yl)-4-((1-(hydroxymethyl)cyclobutyl)amino)-6,7-dihydrothieno[3,2-d]pyrimidine 5-oxide]
- IC50 (PDE4D2): 3.21 nM

SMILES: Cn1cnc2c1CN(c1nc3c(c(NC4(CO)CCC4)n1)[S@+]([O-])CC3)CC2 [Compound 38, (R)-4-((1-(hydroxymethyl)cyclobutyl)amino)-2-(3-methyl-3,4,6,7-tetrahydro-5H-imidazo[4,5-c]pyridin-5-yl)-6,7-dihydrothieno[3,2-d]pyrimidine-5-oxide]
- inhibition at 0.01 µM (PDE4B2 [1]): 35.4%
- inhibition at 0.1 µM (PDE4B2 [1]): 84.7%
- inhibition at 0.01 µM (PDE4B2 [2]): 20.3%
- inhibition at 0.1 µM (PDE4B2 [2]): 38.2%

SMILES: Cn1c(=O)c2c(c3ccc(Cl)cc31)CCN(c1nc3c(c(NC4(CO)CCC4)n1)[S@+]([O-])CC3)C2 [Compound 45, (R)-8-chloro-3-(4-((1-(hydroxymethyl)cyclobutyl)amino)-5-oxido-6,7-dihydrothieno[3,2-d]pyrimidin-2-yl)-6-methyl-2,3,4,6-tetrahydrobenzo[c][2,7]naphthyridin-5(1H)-one]
- inhibition at 0.01 µM (PDE4B2 [1]): 99.8%
- inhibition at 0.1 µM (PDE4B2 [1]): 100%
- IC50 (PDE4B2 [2]): 3.99 nM

SMILES: [O-][S+]1CCc2nc(N3CCc4ccc(Br)cc4CC3)nc(NC3(CO)CCC3)c21 (stereo not shown) [Compound 46]
- PDE4B2 Enzyme Inhibition% @10 nM (PDE4B2 [1]): 98.91%
- PDE4B2 Enzyme Inhibition% @100 nM (PDE4B2 [1]): 100.22%
- Cell Inhibition% @10 nM (PDE4B2 [2]): 69.61%
- Cell Inhibition% @100 nM (PDE4B2 [2]): 99.05%

SMILES: COc1ccc2c(c1)CCN(c1nc3c(c(NC4(CO)CCC4)n1)[S+]([O-])CC3)CC2 (stereo not shown) [Compound 47]
- PDE4B2 Enzyme Inhibition% @10 nM (PDE4B2 [1]): 98.41%
- PDE4B2 Enzyme Inhibition% @100 nM (PDE4B2 [1]): 100.06%
- IC50 (PDE4B2 [2]): 6.28 nM

SMILES: [O-][S@+]1CCc2nc(N3CCc4cc5c(cc4C3)OC(F)(F)O5)nc(NC3(CO)CCC3)c21 [Compound 48, (R)-2-(2,2-difluoro-7,8-dihydro-[1,3]dioxolo[4,5-g]isoquinolin-6(5H)-yl)-4-((1-(hydroxymethyl)cyclobutyl)amino)-6,7-dihydrothieno[3,2-d]pyrimidine 5-oxide]
- inhibition at 0.01 µM (PDE4B2 [1]): 87%
- inhibition at 0.1 µM (PDE4B2 [1]): 101%
- inhibition at 0.01 µM (PDE4B2 [2]): 25.7%
- inhibition at 0.1 µM (PDE4B2 [2]): 76.2%

SMILES: [O-][S@+]1CCc2nc(N3CCc4cc5ncoc5cc4C3)nc(NC3(CO)CCC3)c21 [Compound 49, (R)-2-(7,8-dihydrooxazolo[4,5-g]isoquinolin-6(5H)-yl)-4-((1-(hydroxymethyl)cyclobutyl)amino)-6,7-dihydrothieno[3,2-d]pyrimidine 5-oxide]
- IC50 (PDE4D2): 4.81 nM

SMILES: COc1cc2c(cc1[N+](=O)[O-])CCN(c1nc3c(c(NC4(CO)CCC4)n1)[S@+]([O-])CC3)C2 [Compound 50, (R)-4-((1-(hydroxymethyl)cyclobutyl)amino)-2-(7-methoxy-6-nitro-3,4-dihydroisoquinolin-2(1H)-yl)-6,7-dihydrothieno[3,2-d]pyrimidine 5-oxide]
- IC50 (PDE4D2): 0.695 nM

SMILES: [O-][S@+]1CCc2nc(N3CCc4cc(Br)sc4C3)nc(NC3(CO)CCC3)c21 [Compound 53, (R)-2-(2-bromo-4,7-dihydrothieno[2,3-c]pyridin-6(5H)-yl)-4-((1-(hydroxymethyl)cyclobutyl)amino)-6,7-dihydrothieno[3,2-d]pyrimidine 5-oxide]
- IC50 (PDE4D2): 1.22 nM

SMILES: [O-][S+]1CCc2nc(N3CCc4sc(Br)cc4C3)nc(NC3(CO)CCC3)c21 (stereo not shown) [Compound 55]
- PDE4B2 Enzyme Inhibition% @10 nM (PDE4B2 [1]): 93.26%
- PDE4B2 Enzyme Inhibition% @100 nM (PDE4B2 [1]): 99.90%
- Cell Inhibition% @10 nM (PDE4B2 [2]): 52.78%
- Cell Inhibition% @100 nM (PDE4B2 [2]): 93.43%

SMILES: [O-][S@+]1CCc2nc(N3CCc4scc(Br)c4C3)nc(NC3(CO)CCC3)c21 [Compound 57, (R)-2-(3-bromo-6,7-dihydrothieno[3,2-c]pyridin-5(4H)-yl)-4-((1-(hydroxymethyl)cyclobutyl)amino)-6,7-dihydrothieno[2,2-d]pyrimidine 5-oxide]
- inhibition at 0.001 µM (PDE4B2 [1]; read-out: PDE4B2 Enzyme Inhibition% @1 nM): 38.9%
- inhibition at 0.01 µM (PDE4B2 [1]): 90.5%
- inhibition at 0.1 µM (PDE4B2 [1]): 100%
- inhibition at 0.001 µM (PDE4B2 [2]): 11.8%
- inhibition at 0.01 µM (PDE4B2 [2]): 14.9%
- inhibition at 0.1 µM (PDE4B2 [2]): 71.6%

SMILES: Cn1nc2c(c1Cl)CN(c1nc3c(c(NC4(CO)CCC4)n1)[S+]([O-])CC3)CC2 (stereo not shown) [Compound 58]
- PDE4B2 Enzyme Inhibition% @10 nM (PDE4B2 [1]): 68.74%
- PDE4B2 Enzyme Inhibition% @100 nM (PDE4B2 [1]): 97.48%
- Cell Inhibition% @10 nM (PDE4B2 [2]): 15.88%
- Cell Inhibition% @100 nM (PDE4B2 [2]): 57.11%

SMILES: N#Cc1ccc2c(c1)CN(c1nc3c(c(NC4(CO)CCC4)n1)[S@+]([O-])CC3)C2 [Compound 60, (R)-2-(4-((1-(hydroxymethyl)cyclobutyl)amino)-5-oxido-6,7-dihydrothieno[3,2-d]pyrimidin-2-yl)isoindoline-5-carbonitrile]
- inhibition at 0.01 µM (PDE4B2 [1]): 65.8%
- inhibition at 0.1 µM (PDE4B2 [1]): 99.3%
- inhibition at 0.01 µM (PDE4B2 [2]): 21.2%
- inhibition at 0.1 µM (PDE4B2 [2]): 65.9%

SMILES: O=[N+]([O-])c1ccc2c(c1)CN(c1nc3c(c(NC4(CO)CCC4)n1)[S+]([O-])CC3)C2 (stereo not shown) [Compound 61]
- PDE4B2 Enzyme Inhibition% @10 nM (PDE4B2 [1]): 70.90%
- PDE4B2 Enzyme Inhibition% @100 nM (PDE4B2 [1]): 98.20%
- Cell Inhibition% @10 nM (PDE4B2 [2]): 17.7%
- Cell Inhibition% @100 nM (PDE4B2 [2]): 55.2%

SMILES: [O-][S+]1CCc2nc(N3Cc4ccc(C(F)(F)F)cc4C3)nc(NC3(CO)CCC3)c21 (stereo not shown) [Compound 62]
- PDE4B2 Enzyme Inhibition% @10 nM (PDE4B2 [1]): 83.85%
- PDE4B2 Enzyme Inhibition% @100 nM (PDE4B2 [1]): 100.57%
- Cell Inhibition% @10 nM (PDE4B2 [2]): 29.5%
- Cell Inhibition% @100 nM (PDE4B2 [2]): 69.1%

SMILES: [O-][S+]1CCc2nc(N3CCc4nc(Br)sc4C3)nc(NC3(CO)CCC3)c21 (stereo not shown) [Compound 63]
- IC50 (PDE4B2 [1]): 4.21 nM
- Cell Inhibition% @10 nM (PDE4B2 [2]): 31.1%
- Cell Inhibition% @100 nM (PDE4B2 [2]): 76.6%

SMILES: [O-][S@+]1CCc2nc(N3CCc4nc(N5CCC5)sc4C3)nc(NC3(CO)CCC3)c21 [Compound 64, (R)-2-(2-(azetidin-1-yl)-6,7-dihydrothiazolo[5,4-c]pyridin-5(4H)-yl)-4-((1-(hydroxymethyl)cyclobutyl)amino)-6,7dihydrothieno[3,2-d]pyrimidine 5-oxide]
- IC50 (PDE4D2): 3.46 nM

SMILES: [O-][S@+]1CCc2nc(N3CCc4cc(-c5nccs5)ccc4C3)nc(NC3(CO)CCC3)c21 [Compound 65, (R)-4-((1-(hydroxymethyl)cyclobutyl)amino)-2-(6-(thiazol-2-yl)-3,4-dihydroisoquinolin-2(1H)-yl)-6,7-dihydrothieno[3,2-d]pyrimidine 5-oxide]
- IC50 (PDE4D2): 0.0931 nM

SMILES: [O-][S@+]1CCc2nc(N3CCc4cc(C5CC5)ccc4C3)nc(NC3(CO)CCC3)c21 [Compound 66, (R)-2-(6-cyclopropyl-3,4-dihydroisoquinolin-2(1H)-yl)-4-((1-(hydroxymethyl)cyclobutyl)amino)-6,7-dihydrothieno[3,2-d]pyrimidine 5-oxide]
- IC50 (PDE4D2): 1.13 nM

SMILES: [O-][S@+]1CCc2nc(N3CCc4c(sc5ccc(F)cc45)C3)nc(NC3(CO)CCC3)c21 [Compound 69, (R)-2-(6-fluoro-3,4-dihydrobenzo[4,5]thieno[2,3-c]pyridin-2(1H)-yl)-4-((1-(hydroxymethyl)cyclobutyl)amino)-6,7-dihydrothieno[3,2-d]pyrimidine 5-oxide]
- IC50 (PDE4D2): 0.276 nM

SMILES: [O-][S@+]1CCc2nc(N3CCc4c(cnc5cc(Cl)ccc45)C3)nc(NC3(CO)CCC3)c21 [Compound 72, (R)-2-(8-chloro-1,4-dihydrobenzo[c][2,7]naphthyridin-3(2H)-yl)-4-((1-(hydroxymethyl)cyclobutyl)amino)-6,7-dihydrothieno[3,2-d]pyrimidine 5-oxide]
- IC50 (PDE4D2): 0.587 nM

SMILES: [O-][S@+]1CCc2nc(N3CCc4c(c(Cl)nc5cc(Cl)ccc45)C3)nc(NC3(CO)CCC3)c21 [Compound 73, (R)-2-(5,8-dichloro-1,4-dihydrobenzo[c][2,7]naphthyridin-3(2H)-yl)-4-((1-(hydroxymethyl)cyclobutyl)amino)-6,7-dihydrothieno[3,2-d]pyrimidine 5-oxide]
- IC50 (PDE4D2): 0.958 nM

SMILES: CNc1nc2cc(Cl)ccc2c2c1CN(c1nc3c(c(NC4(CO)CCC4)n1)[S@+]([O-])CC3)CC2 [Compound 74, (R)-2-(8-chloro-5-(methylamino)-1,4-dihydrobenzo[c][2,7]naphthyridin-3(2H)-yl)-4-((1-(hydroxymethyl)cyclobutyl)amino)-6,7-dihydrothieno[3,2-d]pyrimidine 5-oxide]
- IC50 (PDE4D2): 1.09 nM

SMILES: NC(=O)c1ccc2c(c1)CCN(c1nc3c(c(NC4(CO)CCC4)n1)[S+]([O-])CC3)C2 (stereo not shown) [Compound 75]
- IC50 (PDE4B2 [1]): 0.81 nM
- Cell Inhibition% @1 nM (PDE4B2 [2]): 4.93%
- Cell Inhibition% @10 nM (PDE4B2 [2]): 24.88%
- Cell Inhibition% @100 nM (PDE4B2 [2]): 51.36%

SMILES: [O-][S+]1CCc2nc(N3CCc4cnc(Cl)cc4C3)nc(NC3(CO)CCC3)c21 (stereo not shown) [Compound 79]
- IC50 (PDE4B2 [1]): 9.19 nM
- Cell Inhibition% @1 nM (PDE4B2 [2]): 1.99%
- Cell Inhibition% @10 nM (PDE4B2 [2]): 11.19%
- Cell Inhibition% @100 nM (PDE4B2 [2]): 59.37%

SMILES: CN1CC=C(c2ccc3c(c2)CCN(c2nc4c(c(NC5(CO)CCC5)n2)[S@+]([O-])CC4)C3)C1 [Compound 169, (R)-4-((1-(hydroxymethyl)cyclobutyl)amino)-2-(6-(1-methyl-2,5-dihydro-1H-pyrrol-3-yl)-3,4-dihydroisoquinolin-2(1H)-yl)-6,7-dihydrothieno[3,2-d]pyrimidine 5-oxide]
- inhibition at 0.01 µM (PDE4B2 [1]): 20.4%
- inhibition at 0.1 µM (PDE4B2 [1]): 78.8%
- inhibition at 0.001 µM (PDE4B2 [2]): 4.67%
- inhibition at 0.01 µM (PDE4B2 [2]): 48.6%
- inhibition at 0.1 µM (PDE4B2 [2]): 96.7%
